Assay: in vitro
Conditions: human, hela cells, % viability

Point of comparison: `CCOc1ccc(NC(=O)c2ccc(CN3CCOCC3)cc2)cc1` [CBK033557], viability at 28.5 h, 10 µM 89.7%. Against it:
- O=C(CC1C(=O)N(Cc2ccccc2)C(=S)N1Cc1ccccc1)Nc1ccccc1 (stereo not shown) [CBK263871] — higher, 97.3%
- Nc1nnc(SCc2nc(=O)c3ccccc3[nH]2)s1 [CBK270059] — higher, 92.2%
- O=C(COc1ccc(S(=O)(=O)NC2CCCCC2)cc1)N1CCN(c2cccc(Cl)c2)CC1 [CBK265948] — higher, 90.6%
- CCCC(=O)NC1CCN(C(=O)c2snnc2CC)CC1 [CBK297744] — higher, 97.3%
- CN(c1cccc(NS(=O)(=O)c2ccc3ccccc3c2)c1)S(C)(=O)=O [CBK267507] — lower, 85.7%
- Cc1cc(CNS(=O)(=O)c2ccc(-c3ccon3)s2)no1 [CBK062276] — higher, 103%
- Cc1nc(C)c(CC(=O)N(C)CC2OCCc3ccccc32)s1 (stereo not shown) [CBK281478] — higher, 90.9%
- COc1ccc(/C=C2\SC(Nc3ccc(Cl)c(C(=O)O)c3)=NC2=O)cc1C [CBK067743] — higher, 99.1%
- Cc1ccsc1C(C)NC1CCCN(c2ccn(C)n2)C1=O (stereo not shown) [CBK306419] — higher, 106%
- CC(C)[C@@H](CO)Nc1cncc(-c2cccc(CO)c2)n1 [CBK065427] — higher, 95.2%
- O=S(=O)(N1CCCCC1)N1CCN(CC(O)COc2ccc3cc(Br)ccc3c2)CC1 (stereo not shown) [CBK269032] — higher, 106%
- Cn1nccc1C(=O)NC(Cc1cccs1)c1ccccn1 (stereo not shown) [CBK285207] — higher, 96.1%
- CCN1CCN(C(=O)CN(CC)S(=O)(=O)c2ccc3ccccc3c2)CC1 [CBK267913] — higher, 101%
- Cc1cc(OC(C)C(=O)Nc2ccc(S(=O)(=O)Nc3onc(C)c3C)cc2)cc(C)c1Cl (stereo not shown) [CBK267887] — higher, 98.7%
- CN1CCc2nc(SCC(=O)NC(C)(C)C)c(C#N)cc2C1 [CBK267445] — lower, 87.4%
- COc1ccccc1-c1nc(C2CCCN2C(=O)CCCC(=O)O)n2ccccc12 (stereo not shown) [CBK046600] — higher, 90.3%
- O=[N+]([O-])c1ccccc1/C=C/CN1CCN(C/C=C/c2ccccc2)CC1 [CBK261864] — higher, 93%
- CC1(C)CCCCC1CC(=O)NS(=O)(=O)c1cccc(-c2nnco2)c1 (stereo not shown) [CBK306477] — lower, 79.3%
- CCCC12CN3CC(C)(CN(C1)C31C(=O)Nc3ccc(C)cc31)C2=O (stereo not shown) [CBK268491] — higher, 113%
- COc1ccc(C2=NN(CN3C(=O)C(=O)c4cc(Br)ccc43)C(c3cccc([N+](=O)[O-])c3)C2)cc1 (stereo not shown) [CBK263490] — higher, 119%
- Cc1cc(C)c(-n2cccn2)c(CN2CCC(CO)C2)c1 (stereo not shown) [CBK282915] — lower, 87.1%
- Cc1ccc(CSCCNS(=O)(=O)c2ccc([N+](=O)[O-])cc2)cc1 [CBK268496] — higher, 108%
- Cc1noc(C)c1C(=O)Nc1cnc(-c2cccc(C(F)(F)F)c2)c(-c2cccnc2)n1 [CBK036727] — higher, 96.8%
- O=C(CSc1nnc(Cc2cccc3ccccc23)n1-c1ccccc1)N1CCc2ccccc21 [CBK266697] — higher, 99.1%
- COC(=O)c1c(C)[nH]c(C(=O)CSc2ncnc3sc(C)c(-c4ccccc4)c23)c1C [CBK266004] — higher, 99.5%
- Cc1c(CNCCN2CCN(C)CC2c2ccccc2)cnn1C (stereo not shown) [CBK304056] — higher, 98.8%
- O=C(CSc1n[nH]c(=O)[nH]c1=O)N/N=C/c1cccs1 [CBK263508] — higher, 98.9%
- CCC1C=CCN1S(=O)(=O)c1cccc(C(=O)NCc2cnn(C)c2)c1 (stereo not shown) [CBK307536] — higher, 96.4%
- NC(=O)CN1CCC(Oc2nccnc2OCc2ccc(Cl)c(Cl)c2)CC1 [CBK083110] — higher, 104%
- COc1cc(CNn2cnnc2S)ccc1OCC(=O)NC(C)(C)C [CBK266429] — higher, 92.5%
- O=C(COc1ccccc1)N1CCC(c2cccc(Cc3ccccc3F)n2)CC1 [CBK286211] — higher, 104%
- CN1CCC[C@H]1COc1ncccc1OCCO [CBK042185] — higher, 92.6%
- Cc1ccc(-c2n[nH]c(=S)n2CCC(=O)N2CCC(c3c[nH]c4ccccc34)CC2)cc1 [CBK296739] — lower, 86.8%
- Cc1sc(C(N)=O)cc1[N+](=O)[O-] [CBK066863] — higher, 106%
- CNC(=O)c1c(C)nc2ccccc2c1SCCC(=O)O [CBK154987T] — higher, 101%
- CCOc1ccc(NC(=O)C2C3c4ccccc4C(c4ccccc43)C2C(=O)O)cc1 (stereo not shown) [CBK261544] — higher, 102%
- O=[N+]([O-])c1ccc(NCCNS(=O)(=O)c2ccccc2)cc1 [CBK261948] — higher, 96.1%
- Nc1nc2n(n1)C1(CCCCC1)C1=C(CCCC1)N2 [CBK288219] — lower, 86.7%
- COc1cccc(-c2nnn(CC(=O)O)n2)c1 [CBK068202] — higher, 94.9%
- O=C1CC(C(=O)N2CCc3ncc(Cl)cc3C2)c2ccccc2N1 (stereo not shown) [CBK284976] — higher, 94.4%
- CCOc1ccc(OC(=O)c2cccc(C)c2)cc1 [CBK083575] — higher, 101%
- COc1ccc(-c2csc(NC(=O)c3ccccc3-c3ccccc3C(=O)O)n2)cc1 [CBK296076] — lower, 88.6%
- Cc1cc(C(F)F)n2nc(C(=O)Nc3cccc(S(=O)(=O)N4CCOCC4)c3)nc2n1 [CBK266198] — higher, 101%
- COc1ccccc1-n1nc(CC(C)C)nc1C(C)NS(C)(=O)=O (stereo not shown) [CBK306660] — higher, 95.6%
- c1ccc2cc(-c3cn4ccnc4c(N4CCN(c5ccncc5)CC4)n3)ccc2c1 [CBK066369] — lower, 89.2%
- O=C(O)c1ccc2c(c1)c(C(C(=O)O)N1CCCC1)cn2Cc1ccccc1 (stereo not shown) [CBK286633] — higher, 90.1%
- CN(C)C(=O)NCCNC(=O)c1c[nH]nc1-c1cc2ccccc2o1 [CBK306157] — lower, 85.7%
- CCN(CC)C(=O)C1CCCN(C(=O)NCC2COc3ccccc3O2)C1 (stereo not shown) [CBK156116] — lower, 81.4%
- O=C(c1cc(F)c(F)cc1F)N1CCC2(CCCN(Cc3ccc(Cl)c(Cl)c3)C2)C1 (stereo not shown) [CBK131990] — higher, 95.1%
- Cc1cccn2cc(CC(=O)NCCNC(=O)OC(C)(C)C)nc12 [CBK306122] — higher, 100%
- Cc1cccc(CN2CCC(NC(=O)C3(C#N)CCCC3)CC2)c1 [CBK305781] — higher, 91.8%
- CC(C)(C)c1cc(CCCOC(=O)CNc2ccccc2)cc(C(C)(C)C)c1O [CBK261939] — higher, 101%
- Cc1cc([N+](=O)[O-])ccc1-c1ccc(C(=O)Nc2ccc(O)c(-c3nc4ccccc4s3)c2)o1 [CBK263421] — higher, 93%
- O=C(NCCCn1cc(Cl)cn1)N1CCCN(Cc2cccs2)CC1 [CBK307279] — higher, 105%
- COc1ccc(NC(=O)CCn2ccc3ccncc32)c(C)c1 [CBK282860] — higher, 109%
- CC1CCCCN1CCCNc1cc(NS(=O)(=O)c2cn(C)cn2)cc2ccoc12 (stereo not shown) [CBK067940C] — higher, 94.5%
- CC(C)[C@@H](CO)Nc1nccnc1-c1cccs1 [CBK089024] — higher, 93.7%
- COc1ccc(OC(=O)c2ccc3nonc3c2)cc1 [CBK083571] — higher, 97.9%
- O=C(O)c1cccc2c1C(=O)N(Cc1ccc(F)cc1)C2 [CBK291183] — lower, 87.3%
- CCCCc1ccc(S(=O)(=O)c2cnc(SCC(=O)Nc3ccc(Cl)cc3)[nH]c2=O)cc1 [CBK300539] — higher, 106%
- CS(=O)(=O)Nc1ccc2[nH]ccc2c1 [CBK062728] — higher, 91.2%
- COc1cccc(C(=O)N2CCN(C(=O)Nc3ccsc3)CC2)c1 [CBK154782] — higher, 91.5%
- O=S(=O)(c1cccc(C(F)(F)F)c1)n1ccc2c(CN3CCC[C@@H]3CO)cccc21 [CBK116167T] — higher, 96.8%
- Cc1cc(C(=O)N2CCN(Cc3ccco3)C[C@@H]2C(C)C)c(C)[nH]1 [CBK284254] — lower, 88.2%
- CCC(=O)Nc1nc2c(OC)ccc(C)c2s1 [CBK287616] — higher, 110%
- COc1ccc(CN2CCN(c3nccnc3NS(C)(=O)=O)CC2)cc1 [CBK084273] — lower, 88.7%
- Cc1cc(C)n(CC2(CNC(=O)C(c3ccccc3F)N(C)C)CC2)n1 (stereo not shown) [CBK306920] — higher, 97.2%
- O=C1NC(=O)C(CCCCN2CCC[C@@H]2CN2CCCC2)N1 (stereo partly shown) [CBK149110] — higher, 93.4%
- O=C1NCCCC12CCN(Cc1cnc(N3CCOCC3)nc1)CC2 [CBK285528] — higher, 111%
- COc1cc([N+](=O)[O-])ccc1NC(=O)CN(C)S(=O)(=O)c1ccc2ccccc2c1 [CBK267387] — higher, 97.5%
- O=C(c1ccc2[nH]nnc2c1)N1CCN(S(=O)(=O)Cc2ccccc2)CC1 [CBK295346] — lower, 79.3%
- Cc1c(Br)c(C(F)(F)F)nn1CC(=O)Nc1cc(C(F)(F)F)ccc1Cl [CBK087518] — higher, 92.5%
- Cc1cnc2c(c1)cc(C(F)(F)F)n2CC(=O)NC1CC1 [CBK282887] — higher, 105%
- O=C(O)CCSc1nc2ccccc2nc1C(F)(F)F [CBK107866] — higher, 93.7%
- COc1cccc(C(O)CN2CCC3(CC2)CC(O)c2cc(C)ccc2O3)c1 (stereo not shown) [CBK286338] — lower, 88.4%
- COCCn1c(=O)c2c(nc3oc(C(C)(C)C)cn32)n(C)c1=O [CBK307566] — higher, 96.7%
- Cc1ccc(C2=CCN(S(=O)(=O)c3ccc(F)cc3)CC2)o1 [CBK283571] — higher, 93%
- COc1ccc(Cl)cc1NC(=O)NC(=O)C1CCN(CCOc2cccc3ccccc23)CC1 [CBK035116] — higher, 90.9%
- O=C1NC(N2CCCC2)=NOc2nnc(Cl)cc21 [CBK024856] — higher, 109%
- CN1CCCCC/C1=N/C(=S)CN1CCCC1=S [CBK009052] — higher, 96.3%
- COc1cc(NC(=O)c2nn3c(c2Br)NC(c2cccs2)CC3C(F)(F)F)c(OC)cc1Cl (stereo not shown) [CBK263573] — higher, 93.1%
- CC(C)Oc1ccc(C(=O)C2=C(O)C(=O)N(CCN(C)C)C2c2ccncc2)cc1 (stereo not shown) [CBK264907] — higher, 90.3%
- COCCNc1nc(-c2cccc3cccnc23)cn2ccnc12 [CBK037314] — higher, 95.3%
- CCC(C)Nc1nc(SCC(=O)OC)nc(N(C)C)n1 (stereo not shown) [CBK269780] — higher, 95.2%
- COc1ccccc1NC(=O)CCCC(=O)O [CBK261323] — higher, 101%
- O=C(O)Cn1c(=O)[nH]c2c(-c3ccccc3)c[nH]c2c1=O [CBK287218] — lower, 87.2%
- CN1CCN(CCCNC(=O)C2(c3ccccc3)CCCC2)CC1 [CBK149521] — higher, 106%

Source: paper PMC12040169 (PLOS Biology, 2025)
